According to patent publication US20110190269A1, “GAMMA SECRETASE MODULATORS” (priority 2010, published 2011):
Where a name gives a salt, the structure may show the parent alone.

Tested on: γ-secretase
Assay: Cellular γ-secretase assay (inhibition of Aβ42 secretion)
Type: cell-based
Settings: human neuroglioma H4 cells overexpressing human APP, 22 hrs incubation
Method in brief: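 H4 neuroglioma cells overexpressing human APP got a ten-point compound dilution (0.4% DMSO final) for 22 h at 37 °C. Secreted Aβ42 in the supernatant was measured by electrochemiluminescence sandwich immunoassay (capture biotinylated 6E10, detection ruthenylated BAP15). IC50 came from a nonlinear regression fit.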

SMILES	EC50 [nM]
CCOC(=O)c1cc(-c2ccc(F)c(Cl)c2)n2nc(Nc3ccc(-n4cnc(C)c4)c(OC)c3)nc2n1 [Example 94, Ethyl 7-(3-chloro-4-fluorophenyl)-2-(3-methoxy-4-(4-methyl-1H-imidazol-1-yl)phenylamino)-[1,2,4]triazolo[1,5-a]pyrimidine-5-carboxylate]	39
COc1cc(Nc2nc3c(-c4cccc(CNC(=O)OC(C)(C)C)c4)cc(C)cn3n2)ccc1-n1cnc(C)c1 [Example 95, tert-Butyl 3-(2-(3-methoxy-4-(4-methyl-1H-imidazol-1-yl)phenylamino)-6-methyl-[1,2,4]triazolo[1,5-a]pyridin-8-yl)benzylcarbamate]	84
COc1cc(Nc2nc3c(C4=CCN(C(=O)OC(C)(C)C)CC4)cc(C)cn3n2)ccc1-n1cnc(C)c1 [Example 96, tert-Butyl 4-(2-(3-methoxy-4-(4-methyl-1H-imidazol-1-yl)phenylamino)-6-methyl-[1,2,4]triazolo[1,5-a]pyridin-8-yl)-5,6-dihydropyridine-1(2H)-carboxylate]	93
COc1cc(Nc2nc3c(-c4cccc(CN)c4)cc(C)cn3n2)ccc1-n1cnc(C)c1 [Example 97, 8-(3-(Aminomethyl)phenyl)-N-(3-methoxy-4-(4-methyl-1H-imidazol-1-yl)phenyl)-6-methyl-[1,2,4]triazolo[1,5-a]pyridin-2-amine dihydrochloride]	470
COc1cc(Nc2nc3c(-c4cccc(CNS(C)(=O)=O)c4)cc(C)cn3n2)ccc1-n1cnc(C)c1 [Example 98, N-(3-(2-(3-Methoxy-4-(4-methyl-1H-imidazol-1-yl)phenylamino)-6-methyl-[1,2,4]triazolo[1,5-a]pyridin-8-yl)benzyl)methanesulfonamide]	390
COc1cc(Nc2nc3c(N4CCOCC4)cccn3n2)ccc1-n1cnc(C)c1 [Example 101, N-(3-Methoxy-4-(4-methyl-1H-imidazol-1-yl)phenyl)-8-morpholino-[1,2,4]triazolo[1,5-a]pyridin-2-amine]	227
CCOC(=O)N1CC=C(c2cc(C)cn3nc(Nc4ccc(-n5cnc(C)c5)c(OC)c4)nc23)CC1 [Example 107, Ethyl 4-(2-(3-methoxy-4-(4-methyl-1H-imidazol-1-yl)phenylamino)-6-methyl-[1,2,4]triazolo[1,5-a]pyridin-8-yl)-5,6-dihydropyridine-1(2H)-carboxylate]	356
COc1cc(Nc2nc3c(C4=CCN(CC#N)CC4)cc(C)cn3n2)ccc1-n1cnc(C)c1 [Example 108, 2-(4-(2-(3-Methoxy-4-(4-methyl-1H-imidazol-1-yl)phenylamino)-6-methyl-[1,2,4]triazolo[1,5-a]pyridin-8-yl)-5,6-dihydropyridin-1(2H)-yl)acetonitrile]	488
COc1cc(Nc2nc3n(n2)C(c2ccccc2)CCO3)ccc1-n1cnc(C)c1 (stereo not shown) [Example 109, N-(3-Methoxy-4-(4-methyl-1H-imidazol-1-yl)phenyl)-7-phenyl-6,7-dihydro-5H-[1,2,4]triazolo[5,1-b][1,3]oxazin-2-amine]	270
Cc1cn(-c2ccc(Nc3nc4c(-c5ccc(F)cc5Cl)cccn4n3)cc2F)cn1 [Example 110, 8-(2-chloro-4-fluorophenyl)-N-(3-fluoro-4-(4-methyl-1H-imidazol-1-yl)phenyl)-[1,2,4]triazolo[1,5-a]pyridin-2-amine]	29
Cc1cn(-c2c(F)cc(Nc3nc4c(-c5ccc(F)cc5Cl)cccn4n3)cc2F)cn1 [Example 111, 8-(2-chloro-4-fluorophenyl)-N-(3,5-difluoro-4-(4-methyl-1H-imidazol-1-yl)phenyl)-[1,2,4]triazolo[1,5-a]pyridin-2-amine]	29
COc1cc(Nc2nc3c(-c4ccc(F)cc4Cl)cccn3n2)cc(F)c1-n1cnc(C)c1 [Example 112, 8-(2-chloro-4-fluorophenyl)-N-(3-fluoro-5-methoxy-4-(4-methyl-1H-imidazol-1-yl)phenyl)-[1,2,4]triazolo[1,5-a]pyridin-2-amine]	46
Cc1cn(-c2ccc(Nc3nc4c(-c5ccc(F)cc5Cl)cccn4n3)cc2C#N)cn1 [Example 113, 5-(8-(2-chloro-4-fluorophenyl)-[1,2,4]triazolo[1,5-a]pyridin-2-ylamino)-2-(4-methyl-1H-imidazol-1-yl)benzonitrile]	81
COc1cc(Nc2nc3c(-c4ccc(F)cc4Cl)cccn3n2)ccc1-c1cc(C)ncn1 [Example 114, 8-(2-chloro-4-fluorophenyl)-N-(3-methoxy-4-(6-methylpyrimidin-4-yl)phenyl)-[1,2,4]triazolo[1,5-a]pyridin-2-amine]	238
Cc1cc(-c2ccc(Nc3nc4c(-c5ccc(F)cc5Cl)cccn4n3)cc2)nc(C)n1 [Example 115, 8-(2-chloro-4-fluorophenyl)-N-(4-(2,6-dimethylpyrimidin-4-yl)phenyl)-[1,2,4]triazolo[1,5-a]pyridin-2-amine]	242
COc1cc(Nc2nc3c(-c4ccc(Cl)cc4)ccc(C(C)(C)O)n3n2)ccc1-n1cnc(C)c1 [Example 116, 2-{8-(4-Chloro-phenyl)-2-[3-methoxy-4-(4-methyl-imidazol-1-yl)-phenylamino]-[1,2,4]triazolo[1,5-a]pyridin-5-yl}-propan-2-ol]	117

SMILES	EC50 [nM]
COc1cc(Nc2nc3c(-c4ccc(Cl)cc4)cc(C4CC4)cn3n2)ccc1-n1cnc(C)c1 [Example 117, [8-(4-Chloro-phenyl)-6-cyclopropyl-[1,2,4]triazolo[1,5-a]pyridin-2-yl]-[3-methoxy-4-(4-methyl-imidazol-1-yl)-phenyl]-amine]	65
COc1cc(Nc2nc3c(-c4ccc(F)cc4)cc(C4CC4)cn3n2)ccc1-n1cnc(C)c1 [Example 118, [6-Cyclopropyl-8-(4-fluoro-phenyl)-[1,2,4]triazolo[1,5-a]pyridin-2-yl]-[3-methoxy-4-(4-methyl-imidazol-1-yl)-phenyl]-amine]	72
COc1cc(Nc2nc3c(-c4ccc(F)cc4)ccc(C(C)(C)O)n3n2)ccc1-n1cnc(C)c1 [Example 119, 2-{8-(4-Fluoro-phenyl)-2-[3-methoxy-4-(4-methyl-imidazol-1-yl)-phenylamino]-[1,2,4]triazolo[1,5-a]pyridin-5-yl}-propan-2-ol]	31
COc1cc(Nc2nc3c(-c4ccc(F)c(F)c4F)cc(C4CC4)cn3n2)ccc1-n1cnc(C)c1 [Example 120, [6-Cyclopropyl-8-(2,3,4-trifluoro-phenyl)-[1,2,4]triazolo[1,5-a]pyridin-2-yl]-[3-methoxy-4-(4-methyl-imidazol-1-yl)-phenyl]-amine]	96
COc1cc(Nc2nc3c(-c4ccc(F)cc4Cl)ccc(C(C)(C)O)n3n2)ccc1-n1cnc(C)c1 [Example 121, 2-{8-(2-Chloro-4-fluoro-phenyl)-2-[3-methoxy-4-(4-methyl-imidazol-1-yl)-phenylamino]-[1,2,4]triazolo[1,5-a]pyridin-5-yl}-propan-2-ol]	76
COc1cc(Nc2nc3c(-c4ccc(F)c(F)c4F)ccc(C(C)(C)O)n3n2)ccc1-n1cnc(C)c1 [Example 122, 2-[2-[3-Methoxy-4-(4-methyl-imidazol-1-yl)-phenylamino]-8-(2,3,4-trifluoro-phenyl)-[1,2,4]triazolo[1,5-a]pyridin-5-yl]-propan-2-ol]	79
COc1cc(Nc2nc3c(-c4ccc(F)c(Cl)c4)ccc(C(C)(C)O)n3n2)ccc1-n1cnc(C)c1 [Example 123, 2-{8-(3-Chloro-4-fluoro-phenyl)-2-[3-methoxy-4-(4-methyl-imidazol-1-yl)-phenylamino]-[1,2,4]triazolo[1,5-a]pyridin-5-yl}-propan-2-ol]	29
COc1cc(Nc2nc3n(n2)C(c2ccc(F)cc2)CN(C)C3)ccc1-n1cnc(C)c1 (stereo not shown) [Example 124, 5-(4-fluorophenyl)-N-(3-methoxy-4-(4-methyl-1H-imidazol-1-yl)phenyl)-7-methyl-5,6,7,8-tetrahydro-[1,2,4]triazolo[1,5-a]pyrazin-2-amine]	357
COc1cc(Nc2nc3c(-c4ccc(Cl)cc4)cccn3n2)ccc1-n1cnc(C)c1 [Example 125, [8-(4-Chloro-phenyl)-[1,2,4]triazolo[1,5-a]pyridin-2-yl]-[3-methoxy-4-(4-methyl-imidazol-1-yl)-phenyl]-amine]	50
COc1cc(Nc2nc3c(-c4ccc(F)c(F)c4)cccn3n2)ccc1-n1cnc(C)c1 [Example 126, [8-(3,4-Difluoro-phenyl)-[1,2,4]triazolo[1,5-a]pyridin-2-yl]-[3-methoxy-4-(4-methyl-imidazol-1-yl)-phenyl]-amine]	32
COc1cc(Nc2nc3c(-c4ccc(Cl)cc4)cccn3n2)ccc1-c1ccnc(C)c1 [Example 127, [8-(4-Chloro-phenyl)-[1,2,4]triazolo[1,5-a]pyridin-2-yl]-[3-methoxy-4-(2-methyl-pyridin-4-yl)-phenyl]-amine]	39
COc1cc(Nc2nc3c(-c4ccc(F)c(F)c4)cccn3n2)ccc1-c1ccnc(C)c1 [Example 128, 8-(3,4-Difluorophenyl)-N-(3-methoxy-4-(2-methylpyridin-4-yl)phenyl)-[1,2,4]triazolo[1,5-a]pyridin-2-amine]	30
COc1cc(Nc2nc3n(n2)CCN(C)C3c2ccc(F)cc2)ccc1-n1cnc(C)c1 (stereo not shown) [Example 129, 8-(4-fluorophenyl)-N-(3-methoxy-4-(4-methyl-1H-imidazol-1-yl)phenyl)-7-methyl-5,6,7,8-tetrahydro-[1,2,4]triazolo[1,5-a]pyrazin-2-amine]	300
COc1cc(Nc2nc3c(-c4ccc(F)c(Cl)c4)cccn3n2)ccc1-n1cnc(C)c1 [Example 130, 8-(3-chloro-4-fluorophenyl)-N-(3-methoxy-4-(4-methyl-1H-imidazol-1-yl)phenyl)-[1,2,4]triazolo[1,5-a]pyridin-2-amine]	16
COc1cc(Nc2nc3c(-c4ccc(F)cc4Cl)cccn3n2)ccc1-n1cnc(C)c1 [Example 131, 8-(2-chloro-4-fluorophenyl)-N-(3-methoxy-4-(4-methyl-1H-imidazol-1-yl)phenyl)-[1,2,4]triazolo[1,5-a]pyridin-2-amine]	38
